# “Also recorded” adds a separate entry of the source.
# Tested on: cultured cardiomyocytes
# Assay: Propagation of pulsation in cultured cardiomyocytes after drug administration, shown by two-dimensional color maps of the motion amount absolute value
# Assay type: cell-based
# Conditions: for speed of propagation of pulsation / state (direction, path) of propagation of pulsation: compared with organic solvent (control); for state (direction, path) of propagation of pulsation: color maps over 0 to 240 ms; for stop of propagation of pulsation / region without pulsation (motionless region): within the observation region
# Text: A drug evaluation apparatus 100 illustrated in FIG. 3 is an apparatus that conducts evaluation of a drug administered to cultured cardiomyocytes 110 by observing a motion of the cardiomyocytes 110. […] The imaging unit 101 images the cultured cardiomyocytes 110 during a predetermined period. That is, the imaging unit 101 obtains a moving image of the cultured cardiomyocytes 110 as an object. The imaging unit 101 images the cultured cardiomyocytes 110 before and after the drug administration. Note that the imaging unit 101 may image the cultured cardiomyocytes 110 several times after the drug administration according to a predetermined condition, such as after a predetermined time having passed, for example. The evaluation index data generation unit 103 performs, in each frame image of the supplied object to be evaluated image data 112, motion detection of the object to be observed (cultured cardiomyocytes 110) for each block that is a subregion obtained by dividing all regions of an image of the object to be observed (cultured cardiomyocytes 110) into a plurality of regions. The evaluation index data generation unit 103 expresses the detected motion of each block as a motion vector, and obtains the magnitude of the motion vector (motion amount). Note that this motion amount is an absolute value, and therefore, hereinafter, the motion amount will be also referred to as a motion amount absolute value. The evaluation unit 104 maps the motion amount absolute value supplied as the evaluation index data 113 into a two-dimensional color map, and evaluates the drug by expressing the state of propagation of pulsation and further, by quantitatively evaluating the state thereof. The evaluation unit 104 outputs the two-dimensional color map and a quantitative evaluation result as an evaluation value 114. The two-dimensional color map indicates the size of a parameter at each position on a plane in color. In this case, the plane represents an observation region of the cultured cardiomyocytes 110, and the color represents the motion amount absolute value (size of the value). That is, a position of the motion amount absolute value is represented by a position on the plane, and the size of the value is represented in color. That is, a distribution of the motion amount absolute value within the observation region is indicated by a change of the color on the plane. Examples of such a two-dimensional color map are illustrated in FIGS. 4 to 6. The eight color maps illustrated in FIG. 4 respectively indicate the distribution of the motion amount absolute value within the observation region, and a position on the color map indicates a position within the observation region and higher color density indicates a larger motion amount absolute value. […] Note that the arrows on the color maps are drawn for the purpose of description, and they are not drawn on actual color maps.
SMILES,speed of propagation of pulsation,"state (direction, path) of propagation of pulsation",stop of propagation of pulsation / region without pulsation (motionless region)
CC(C)NCC(O)c1ccc(NS(C)(=O)=O)cc1 (racemic) [DL-sotalol],the speed of the propagation is slower than the left side,"propagated from an upper left side to a lower right side, but the propagation stops within the observation region",pulsation is not caused in a part of the observation region in the right side; also recorded: the pulsation is not propagated to the right side portion of the observation region
CC1(C)[C@@H](O)CC[C@]2(C)[C@H]3C(=O)C=C4[C@@H]5C[C@@](C)(C(=O)O)CC[C@]5(C)CC[C@@]4(C)[C@]3(C)CC[C@@H]12 [18-β-Glycyrrhetinic acid],the speed of the propagation is slow,proceeds into various directions,the propagation of the pulsation temporarily stops
CCCCCCCO [1-Heptanol],the speed of the propagation is slow,linearly propagated as time passes while changing the direction to revolve,–

# From patent publication US10650534B2, “Display control and image processing of a cell image” (Sony Corporation, priority 2011, dated 2020)
